# Read-outs that look alike come from different tables or passages of the source.
# Columns and labels:
# HTLV-III/LAV = conditions: cell line H9; cited from earlier work
# [1] = Solubility of nystatin / polyenes; format: physicochemical
# [2] = system: Candida albicans strain 336; experiment: In vitro MIC, twofold serial dilution, C. albicans strain 336 (Table 5); format: cell-based
# Method: (§1) Organism, culture, and assay of antifungal activity in vitro. All strains of yeast were grown overnight at 37° C. on Sabouraud dextrose agar (SDA) plates. All molds were grown at 30° C. on SDA for 3 to 10 days prior to collection of spores. The inoculum was then processed for susceptibility testing as described earlier (Hopfer et al., Antimicrob. Agents Chemotherap., Vol. 25, pp 387-389 (1984)). A twofold serial dilution method (Shadomy et al., In E. H. Lennette, et al., (eds.) Manual of Clinical Microbiology, 3rd ed. American Society for Microbiology, Washington, D.C. , pp. 647-653 (1980)) adapted to microtiter plates was used to determine the minimal inhibitory concentration (MIC) of the drugs. The MIC of L-Nys were compared with that of free-Nys. Empty liposomes and 5% dimethylsulfoxide (DMSO) were used as controls.
# The antifungal activity was maintained after Nys was entrapped in liposomes with or without sterols.
# Allescheria = experiment: In vitro antifungal spectrum, MIC (Table 6); format: cell-based
# Method: as §1
# (§2) The L-Nys was prepared and tested generally as described above in this and earlier examples, except for the various new fungal varieties. […] (Hopfer et al., […], Vol. 25, No. 3, pp. 387-389 (1984)).
# Alternaria = experiment: In vitro antifungal spectrum, MIC (Table 6); format: cell-based
# Method: as §1, §2
# Aspergillus flavus = experiment: In vitro antifungal spectrum, MIC (Table 6); format: cell-based
# Method: as §1, §2
# Aspergillus fumigatus = experiment: In vitro antifungal spectrum, MIC (Table 6); format: cell-based
# Method: as §1, §2
# Aspergillus niger = experiment: In vitro antifungal spectrum, MIC (Table 6); format: cell-based
# Method: as §1, §2
# [3] = system: Aspergillus not fumigatus; experiment: In vitro antifungal spectrum, MIC (Table 6); format: cell-based
# Method: as §1, §2
# Candida albicans [4] = experiment: In vitro antifungal spectrum, MIC (Table 6); format: cell-based
# Method: as §1, §2
# Candida paratropicalis = experiment: In vitro antifungal spectrum, MIC (Table 6); format: cell-based
# Method: as §1, §2
# Candida tropicalis = experiment: In vitro antifungal spectrum, MIC (Table 6); format: cell-based
# Method: as §1, §2
# Cryptococcus neoformans = experiment: In vitro antifungal spectrum, MIC (Table 6); format: cell-based
# Method: as §1, §2
# Curvularia = experiment: In vitro antifungal spectrum, MIC (Table 6); format: cell-based
# Method: as §1, §2
# Fusarium = experiment: In vitro antifungal spectrum, MIC (Table 6); format: cell-based
# Method: as §1, §2
# Mucor = experiment: In vitro antifungal spectrum, MIC (Table 6); format: cell-based
# Method: as §1, §2
# Rhizopus = experiment: In vitro antifungal spectrum, MIC (Table 6); format: cell-based
# Method: as §1, §2
# Torulopsis globrata = experiment: In vitro antifungal spectrum, MIC (Table 6); format: cell-based
# Method: as §1, §2
# human RBCs = experiment: Lysis of human red blood cells (hemoglobin release at 550 nm); format: cell-based; conditions: 37 °C, 45 min
# Method: Lysis of human red blood cells (RBCs) was quantitated by measuring the release of hemoglobin in the supernatants at 550 nm, as described previously (Mehta et al., Biochem. Biophys, Acta., Vol. 770, pp. 230-234 (1984)). Various doses of L-Nys were incubated with fresh washed human RBCs at 37° C for 45 min. Free-Nys, dissolved in dimethyl formamide (DMFA), was added to the assay at a 3% final solvent concentration. Appropriate solvent controls, empty liposomes, and empty liposomes plus free-drug were also included in each experiment. Release of hemoglobin by hypotonic lysis of the same number of human RBCs by water was taken as 100% positive control, while cells treated with PBS were taken as negative controls.
# mice = experiment: In vivo toxicology in Hale-Stoner mice
# Method: Groups of eight Hale-Stoner mice (6-8 weeks old, body wt=20-25 g; Univ. of TX Science Park, Bastrop, TX) each were injected with various doses of free-Nys (in 5% DMSO diluted with saline), L-Nys, empty liposomes or 5% DMSO as control. […] After 45 days, the surviving animals were sacrificed and blood and tissue samples were obtained. Blood biochemistry examination included blood urea nitrogen, alkaline phosphatase, and lactic dehydrogenase (LDH). The organs (liver, spleen, lungs and kidneys) were obtained and preserved in 10% formalin. Tissue slices were processed for hematoxylin-eosin and Gomori methenamine silver stains.
# Candida albicans [5] = experiment: Single-dose therapy with free Nys of disseminated C. albicans infection in mice; format: in vivo, Hale-Stoner mice; conditions: single iv dose, 1 mg to 4 mg/kg
# Method: (§3) Hale-Stoner mice, six to eight weeks old (body weight, 20-25 g) were purchased from The University of Texas Science Park (Bastrop, TX). The mice (eight per group) were injected with 0.2 ml of C. albicans cell suspension containing 7×10^5 colony-forming units (cfu) via the tail vein. This concentration of cells was consistent in producing a disseminated infection after 48 hr, affecting liver, spleen, lungs, and kidneys primarily. Infected mice were treated with increasing doses of free-Nys, ranging from 1 mg to 4 mg/kg body weight (FIG. 5).
# Candida albicans [6] = experiment: Single-dose therapy with free Nys or L-Nys of disseminated C. albicans infection in mice; format: in vivo, Hale-Stoner mice; conditions: 4 mg/kg
# Method: as §3
# Mice were infected with C. albicans as described in Example 9. Groups of eight mice each were injected (iv) with various doses of free-Nys, L-Nys, empty liposomes or 5% DMSO two days after the injection of C. albicans. The survival of the animals in each group was noted and compared with that of the untreated control group.
# Candida albicans [7] = experiment: Multiple-dose therapy with Nys or L-Nys of disseminated C. albicans infection in mice; format: in vivo, Hale-Stoner mice
# Method: as §3
# Two days after the injection of C. albicans (iv), (as described in Examples 9 and 10), the mice were treated with different doses of free-Nys, L-Nys, empty liposomes or 5% DMSO control for five consecutive days. The multiple-dose groups were also compared with appropriate cumulative single doses (see Example 10). The animals were then observed for survival or any toxicity pertaining to the treatment with five daily doses.
# These experiments were terminated at 60 days, and blood and tissue samples were collected from the surviving animals after sacrifice.
# Survival curves were calculated by the method of Kaplan and Meier (J. Amer. Stat. Assoc., Vol. 53, pp 457-462 […]) and tests for differences in survival distributions were based on a generalized Wilcoxon test (Gehan., Biometrika, Vol. 52, pp 203-223 (1965)). […]
# [8] = cited from earlier work
# [9] = orally and topically; cited from earlier work
compound,measurement,setting,value
C[C@@H]1[C@H](O)[C@@H](C)/C=C/C=C/C=C/C=C/C=C/C=C/C=C/[C@H](O[C@@H]2O[C@H](C)[C@@H](O)[C@H](N)[C@@H]2O)C[C@@H]2O[C@](O)(C[C@@H](O)C[C@@H](O)[C@H](O)CC[C@@H](O)C[C@@H](O)CC(=O)O[C@H]1C)C[C@H](O)[C@H]2C(=O)O [amphotericin B],replication of HTLV-III/LAV in H9 cells,HTLV-III/LAV,inhibited
"C[C@@H]1[C@H](O)[C@@H](C)/C=C/C=C/CC/C=C/C=C/C=C/C=C/C(O[C@H]2O[C@H](C)[C@@H](O)[C@H](N)[C@@H]2O)CC2O[C@](O)(CC(O)C(O)CCC(O)CC(O)CC(O)CC(=O)O[C@H]1C)CC(O)C2C(=O)O (some centres unmarked) [free-Nys, nystatin]",soluble in DMFA,"[1]; N,N-dimethylformamide",15 mg/mL
same,soluble in DMSO,[1]; dimethyl sulfoxide,40 mg/mL
same,soluble in methanol,[1]; methanol,1 mg/mL
same,Minimal Inhibitory Concentration,[2],1.0 µg/mL
same,Minimal Inhibitory Concentration,Allescheria,16 µg/mL
same,Minimal Inhibitory Concentration,Alternaria,2 µg/mL
same,Minimal Inhibitory Concentration,Aspergillus flavus,1 µg/mL
same,Minimal Inhibitory Concentration,Aspergillus fumigatus,8 µg/mL
same,Minimal Inhibitory Concentration,Aspergillus niger,4 µg/mL
same,Minimal Inhibitory Concentration,[3]; Aspergillus not fumigatus #1,4 µg/mL
same,Minimal Inhibitory Concentration,[3]; Aspergillus not fumigatus #2,16 µg/mL
same,Minimal Inhibitory Concentration,Candida albicans [4]; C. albicans #1,2 µg/mL
same,Minimal Inhibitory Concentration,Candida albicans [4]; C. albicans #2,2 µg/mL
same,Minimal Inhibitory Concentration,Candida albicans [4]; C. albicans #3,4 µg/mL
same,Minimal Inhibitory Concentration,Candida albicans [4]; C. albicans #4,4 µg/mL
same,Minimal Inhibitory Concentration,Candida albicans [4]; C. albicans #5,8 µg/mL
same,Minimal Inhibitory Concentration,Candida albicans [4]; C. albicans #6,4 µg/mL
same,Minimal Inhibitory Concentration,Candida albicans [4]; C. albicans #7,8 µg/mL
same,Minimal Inhibitory Concentration,Candida albicans [4]; C. albicans #8,8 µg/mL
same,Minimal Inhibitory Concentration,Candida albicans [4]; C. albicans #9,4 µg/mL
same,Minimal Inhibitory Concentration,Candida albicans [4]; C. albicans #10,4 µg/mL
same,Minimal Inhibitory Concentration,Candida paratropicalis; C. paratropicalis #1,2 µg/mL
same,Minimal Inhibitory Concentration,Candida paratropicalis; C. paratropicalis #2,2 µg/mL
same,Minimal Inhibitory Concentration,Candida paratropicalis; C. paratropicalis #3,4 µg/mL
same,Minimal Inhibitory Concentration,Candida paratropicalis; C. paratropicalis #4,4 µg/mL
same,Minimal Inhibitory Concentration,Candida tropicalis; C. tropicalis #1,16 µg/mL
same,Minimal Inhibitory Concentration,Candida tropicalis; C. tropicalis #2,8 µg/mL
same,Minimal Inhibitory Concentration,Candida tropicalis; C. tropicalis #3,4 µg/mL
same,Minimal Inhibitory Concentration,Candida tropicalis; C. tropicalis #4,4 µg/mL
same,Minimal Inhibitory Concentration,Cryptococcus neoformans; Cryptococcus neoformans #1,4 µg/mL
same,Minimal Inhibitory Concentration,Cryptococcus neoformans; Cryptococcus neoformans #2,4 µg/mL
same,Minimal Inhibitory Concentration,Curvularia,2 µg/mL
same,Minimal Inhibitory Concentration,Fusarium,62.5 µg/mL
same,Minimal Inhibitory Concentration,Mucor,2 µg/mL
same,Minimal Inhibitory Concentration,Rhizopus,4 µg/mL
same,Minimal Inhibitory Concentration,Torulopsis globrata; Torulopsis globrata #1,4 µg/mL
same,Minimal Inhibitory Concentration,Torulopsis globrata; Torulopsis globrata #2,2 µg/mL
same,Minimal Inhibitory Concentration,Torulopsis globrata; Torulopsis globrata #3,4 µg/mL
same,Minimal Inhibitory Concentration,Torulopsis globrata; Torulopsis globrata #4,4 µg/mL
same,lysis of human RBCs,human RBCs; 120 ug/ml,100%
same,concentration range with linear increase in lysis of human RBCs,human RBCs,60 to 120 µg/mL
same,mortality,"mice; 4.4 mg/kg, mice, iv",all the animals died immediately
same,toxicity and efficacy when administered intravenously,"mice; intravenous, summary",toxic and noneffective when administered intravenously
same,maximal tolerated dose (MTD),"mice; mice, iv, per body weight",4 mg/kg
same,survival of infected mice versus untreated control,Candida albicans [5],None of the doses tested improved the survival of infected mice
same,therapeutic effect in vivo,Candida albicans [6],no therapeutic effect in vivo
same,survival time,Candida albicans [7]; single or multiple doses,10 days
same,survival of infected mice,"Candida albicans [7]; single or multiple doses (MTD, five consecutive days)",died as rapidly as the untreated controls
same,solubility in water,[8]; listed as Nys,substantially water-insoluble
same,solubility in water,[8]; listed as Nystatin,aqueous insolubility
same,tolerability,[9],Tolerated well both orally and topically
COC(=O)[C@H]1[C@@H]2C[C@@H](O[C@@H]3O[C@H](C)[C@@H](O)[C@H](N)[C@@H]3O)/C=C/C=C/C=C/C=C/C=C/C=C/C=C/[C@H](C)[C@@H](O)[C@@H](C)[C@H](C)OC(=O)C[C@H](O)C[C@H](O)CC[C@@H](O)[C@H](O)C[C@H](O)C[C@](O)(C[C@@H]1O)O2 [amphotericin B methyl ester ascorbate],replication of HTLV-III/LAV in H9 cells,HTLV-III/LAV,inhibited

# Reference: US4812312A, “Liposome-incorporated nystatin” (Board of Regents of the University of Texas System, priority 1987, dated 1989)
